From patent US11008362B2, “Malonyl-coenzyme A mimics as fatty acid synthase inhibitors and methods of use” (priority 2018, dated 2021)

Legend:
MMCD = MMCD (Escherichia coli, UniProt P52045); conditions: coupled assay, pH 7.2 and 37° C., not optimized; cited from earlier work
[1] = biological target: T1, Escherichia coli methylmalonyl-CoA decarboxylase (YgfG, MMCD) (Escherichia coli, UniProt P52045); assay: Inhibition assays of MMCD by 4-9 (HPLC detection, kcat/Km approximation at low substrate); format: biochemical; conditions: 200 μM methylmalonyl-CoA, 1 nM MMCD, pH 6.5, 25° C.; read-out: Ki (inhibition constant, competitive inhibition)
T1 construct: made in house; host or cells: E. coli BL21 (DE3)
T1 sequence (P52045 whole entry): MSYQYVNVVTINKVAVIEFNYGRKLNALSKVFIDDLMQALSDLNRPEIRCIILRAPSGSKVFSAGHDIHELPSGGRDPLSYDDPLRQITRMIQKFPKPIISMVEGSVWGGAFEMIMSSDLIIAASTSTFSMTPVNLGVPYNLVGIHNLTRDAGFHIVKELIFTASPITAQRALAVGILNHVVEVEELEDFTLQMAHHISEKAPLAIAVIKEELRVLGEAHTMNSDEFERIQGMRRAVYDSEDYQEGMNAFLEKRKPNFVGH
Protocol: Initially we attempted to use isothermal titration calorimetry to determine the binding affinity of our analogs to MMCD. […] Because of this secondary site causes problems with biophysical characterization of binding affinity, we used the kcat/Km approximation at low substrate concentrations for the determination of inhibition constants for our analogs. These assays gave Kis of 7.5±1.1 μM for 4, 3.8±1.6 μM for 5, 7.1±1.7 μM for 6, 10.8±2.3 μM for 7, 20.6±2.7 μM for 8 and 19.8±1.4 μM for 9. The sulfonate isosteres bind tighter than the nitro isosteres in general. Our results have been published and incorporated herein by reference in its entirety (Stunkard, L M, et al., J. Am. Chem. Soc. 2019, 141, 5121-5124).
General procedure for MMCD-His6 catalyzed activity assays. The reactions were performed in a 550 μL reaction mixture which contained 50 mM potassium phosphate buffer (KH2PO4/K2HPO4) at pH 6.5 unless otherwise noted, 10 mM MgCl2, methylmalonyl-CoA and the assay was initiated by the addition of MMCD. Reaction mixtures were incubated at 25° C., 65 μL aliquots taken at times noted below were quenched with 25 μL of 50% TFA v/v, precipitating the protein. Centrifugation at 2000 rpm at 25° C. for 10 minutes was used to pellet the protein and the supernatant was analyzed via the procedure outlined below.
General procedure for determination of methylmalonyl-CoA, propionyl-CoA and CoA concentrations in MMCD catalyzed assays. Substrate and product concentrations were determined using HPLC with detection at A254 over the 250×4.6 mm C18(2) column. The analytes were separated with a 2→25% gradient of 0.1% TFA in water→ACN over 20 min. Peak areas of substrate and products were converted to concentration by summing their areas and dividing each peak by this total to give relative percentages that were converted to concentration by adjusting to the starting concentration of methylmalonyl-CoA. This procedure gave essentially the same values as using a standard curve to generate concentrations for each peak, but enhanced reproducibility due to small differences in recovery from the reaction quenching step outlined above.
Inhibition assays of MMCD by 4-9 were performed according to the general procedure above with 200 μM methylmalonyl-CoA, 4-9 (0 μM, 2 μM, 5 μM, 20 μM, and 50 μM) and the assay was initiated by the addition of 1 nM MMCD. Aliquots were taken at the times 20s, 40s, 60s, 150s, 300s, 600s, 900s, and 1800s.
The initial rates (Vi) of decomposition of methylmalonyl-CoA were determined by fitting the progress curve data to equation (1) which describes a simple exponential decay with rate (k), time (t) and initial substrate concentration ([S]t). The rate of formation of propionyl-CoA or CoA could be fit to equation (2). The derivative at time 0 for Equation (1) divided by enzyme concentration gives the initial rates Vi as shown in equation (3). Using this method rather than linear estimation from the early data points gave similar values. However, it allowed more accurate determination of Vi at early time points. [S]=[S]t·e^−k·t Equation (1) [S]=[S]t·(1−e^k·t) Equation (2) Vi=([S]t·k)/[E] Equation (3)
Inhibition of MMCD by 4-9 was determined by fitting initial rate data to equation (6), which describes competitive inhibition and […] describes the Vi in the presence of inhibitor (Lu, J, et al., Protein Eng. Des. Sel. 2017, 30, 395-399). The values of (Vi·Vis)/(Vii−Vis) and Km/kcat were determined from the initial slopes of Vi or Vii versus substrate concentration rather than from the full assay, see Figures S5 and S9. A minimum of two concentrations were used, 20 or 50 μM of each 4-9 and the experiments were repeated at least twice.

Chain of MMCD (P52045 whole entry): as above

Structure (SMILES)	Km (MMCD)	kcat (MMCD)	Ki [1]
C[C@@H](C(=O)O)C(=O)SCCNC(=O)CCNC(=O)[C@H](O)C(C)(C)COP(=O)(O)OP(=O)(O)OC[C@H]1O[C@@H](n2cnc3c(N)ncnc32)[C@H](O)[C@@H]1OP(=O)(O)O [(2S)-methylmalonyl-CoA]	13.6 µM	1.6 s⁻¹	–
CC(C(=O)SCCNC(=O)CCNC(=O)C(O)C(C)(C)COP(=O)(O)OP(=O)(O)OCC1OC(n2cnc3c(N)ncnc32)C(O)C1OP(=O)(O)O)S(=O)(=O)O (centres unmarked) [compound 4, 2-sulfonatepropionyl-S-CoA]	–	–	7.5 ± 1.1 µM
CC(C(=O)OCCNC(=O)CCNC(=O)C(O)C(C)(C)COP(=O)(O)OP(=O)(O)OCC1OC(n2cnc3c(N)ncnc32)C(O)C1OP(=O)(O)O)S(=O)(=O)O (centres unmarked) [compound 5, 2-sulfonatepropionyl-oxa(dethia)CoA]	–	–	3.8 ± 1.6 µM
CC(C(=O)NCCNC(=O)CCNC(=O)C(O)C(C)(C)COP(=O)(O)OP(=O)(O)OCC1OC(n2cnc3c(N)ncnc32)C(O)C1OP(=O)(O)O)S(=O)(=O)O (centres unmarked) [compound 6, 2-sulfonatepropionyl-amino(dethia)CoA]	–	–	7.1 ± 1.7 µM
CC(C(=O)SCCNC(=O)CCNC(=O)[C@H](O)C(C)(C)COP(=O)(O)OP(=O)(O)OC[C@H]1O[C@@H](n2cnc3c(N)ncnc32)[C@H](O)[C@@H]1OP(=O)(O)O)[N+](=O)[O-] (some centres unmarked) [compound 7, 2-nitropropionyl-S-CoA]	–	–	10.8 ± 2.3 µM
CC(C(=O)OCCNC(=O)CCNC(=O)[C@H](O)C(C)(C)COP(=O)(O)OP(=O)(O)OC[C@H]1O[C@@H](n2cnc3c(N)ncnc32)[C@H](O)[C@@H]1OP(=O)(O)O)[N+](=O)[O-] (some centres unmarked) [compound 8, 2-nitropropionyl-oxa(dethia)CoA]	–	–	20.6 ± 2.7 µM
CC(C(=O)NCCNC(=O)CCNC(=O)[C@H](O)C(C)(C)COP(=O)(O)OP(=O)(O)OC[C@H]1O[C@@H](n2cnc3c(N)ncnc32)[C@H](O)[C@@H]1OP(=O)(O)O)[N+](=O)[O-] (some centres unmarked) [compound 9, 2-nitropropionyl-amino(dethia)CoA]	–	–	19.8 ± 1.4 µM
